In patent US20110106000A1, “Nitric Oxide Compositions and Devices and Methods for Cosmesis” (MICROPHARMA LIMITED, priority 2008, published 2011):

Columns and labels:
porcine liver esterase = assay: Enzymatic generation of gNO with porcine liver esterase, sodium nitrite and ester substrates; format: biochemical; conditions: for substrate ranking for porcine liver esterase (gNO generation): FIG. 31, measured hourly; for gNO production: porcine liver esterase, sodium nitrite
Experimental: (§1) Enzymatic Generation of gNO: A 200 μl reaction solution was prepared by combining water, an acetate ester (ethyl acetate, isobutyl acetate, octyl acetate) or a triglyceride such as triacetin (glyceryl triacetate), sodium nitrite, and an esterase (porcine liver esterase, rhyzopus oryzae esterase) or a lipase (porcine pancreatic lipase, candida rugosa lipase). The solution was then added to a 2 ml vial, which was closed tightly with a septum cap. The head gas was sampled every hour from the reaction containing vials in order to determine gNO concentrations.

candida rugosa lipase = assay: Enzymatic generation of gNO with candida rugosa lipase, sodium nitrite and ester substrates; format: biochemical
Experimental: as §1

Compound	substrate ranking for porcine liver esterase (gNO generation) (porcine liver esterase)	nitric oxide production (in words) (candida rugosa lipase; candida rugosa lipase tested against four substrates)	gNO production (candida rugosa lipase; candida rugosa lipase, sodium nitrite, one hour after the reaction was started)	gNO production (porcine liver esterase; 0.5% triacetin in the assay)	gNO production (porcine liver esterase; 1% triacetin in the assay)	gNO production (porcine liver esterase; over the 6 hour experiment)
CCOC(C)=O [ethyl acetate]	best substrates	–	–	–	–	–
CC(=O)OCC(COC(C)=O)OC(C)=O [triacetin, glyceryl triacetate]	best substrates	able to produce high amounts of nitric oxide	≥ 200 ppmV	≤ 200 ppmV	up to 250 ppmV	> 350 ppmV
